Columns and labels:
[1] = test system: bortezomib-refractory disease; conditions: cited from earlier work
[2] = test system: MM refractory to either 4 or 5 drugs (quad- and penta-refractory); test: phase 2 STORM study Part 1; format: in vivo, human; conditions: Selinexor 80 mg in combination with dexamethasone 20 mg, 2 dosing schedules; quad- and penta-refractory MM patients
Experimental: Selinexor 80 mg in combination with dexamethasone 20 mg administered using 2 dosing schedules was studied in patients with MM refractory to either 4 or 5 drugs (quad- and penta-refractory) in Part 1 of the phase 2 STORM (Selinexor Treatment Of Refractory Myeloma) study. Median overall response rate (ORR) was 21% in this heterogeneous population. Based on these findings, the activity of selinexor 80 mg administered twice-weekly was examined in a more uniform population in the pivotal STORM Part 2 study.

[3] = test system: penta-exposed, triple-class refractory MM; test: pivotal STORM Part 2 study; format: in vivo
Source text: Eligible patients had measurable MM by International Myeloma Working Group (IMWG) criteria (See, Durie B G, Harousseau J L, Miguel J S, et al. International uniform response criteria for multiple myeloma. Leukemia 2006;20:1467-73. Rajkumar S V, Harousseau J L, Durie B, et al. Consensus recommendations for the uniform reporting of clinical trials: report of the International Myeloma Workshop Consensus Panel. Blood 2011;117:4691-5); prior treatment with bortezomib, carfilzomib, lenalidomide, pomalidomide, daratumumab, glucocorticoids, and an alkylating agent; and had disease refractory to at least 1 IMiD (lenalidomide and pomalidomide), 1 PI (bortezomib or carfilzomib), daratumumab, glucocorticoids and to their last regimen. Refractory disease was defined as progression during or within 60 days after completion of therapy, or <25% response to therapy.19, 20 Eastern Cooperative Oncology Group performance status of 0-2, adequate hepatic function, renal function, and hematopoietic function were required. Systemic light chain amyloidosis, active central nervous system involvement, grade≥3 peripheral or grade≥2 painful neuropathy were exclusion criteria.
Oral selinexor 80 mg in combination with dexamethasone 20 mg was administered on days 1 and 3, weekly, in 4-week cycles until disease progression, death or discontinuation. A dose modification protocol was used for adverse event (AE) management. All patients were required to receive ondansetron 8 mg (or equivalent) prior to the first dose of study drug and 2-3 times daily as needed. Other antiemetics (olanzapine, NK-1R antagonists) were permitted for patients intolerant to or with persistent nausea. Supportive measures were provided at the discretion of the investigator and may have included intravenous fluids, hematopoietic growth factors, transfusions, and/or appetite stimulants (olanzapine, megesterol acetate).
The primary endpoint was Overall Response Rate (ORR) adjudicated by the appointed Independent Review Committee (IRC). Secondary endpoints included duration of response (DOR), clinical benefit rate (CBR), progression-free survival (PFS) and OS (Overall Survival). Disease-specific assessments were conducted at baseline, day 1 of each treatment cycle, and at the time of disease progression or suspected response. High-risk cytogenetics included del(17p), t(4;14), t(14;16), and gain(1q) chromosomal abnormalities by fluorescent in situ hybridization (FISH). Quality of life was assessed using the Functional Assessment of Cancer Therapy-Multiple Myeloma (FACT-MM) patient-reported outcome questionnaire. Safety and tolerability were assessed through history, physical exam, laboratory assessments and 12-lead electrocardiogram. Adverse events (AEs) were graded according to the NCI CTCAE v4.03.
The sample size was based on assumptions for penta-exposed, triple-class-refractory MM using a minimal threshold for ORR of 10%. For the primary efficacy analysis, a sample size of 122 patients allowed for a one-sided test at α=0.025 to detect an ORR of ≥20% against the threshold ORR of 10% with 90% power. The modified intention-to-treat (mITT) population was used for the primary efficacy analysis, comprised of all enrolled patients who met all eligibility criteria or received a waiver from the Sponsor to enroll in the trial and received at least 1 dose of selinexor plus dexamethasone. The safety population included all patients who received at least 1 dose of study drug. The primary analysis used a 2-sided, exact 95% confidence interval, calculated for the ORR among the mITT population, with statistical significance declared if the lower bound of this interval was >10%. […] Summary statistics for continuous variables minimally included: n (number), mean, standard deviation (SD), minimum, median, and maximum. For categorical variables, frequencies and percentages are presented. For time-to-event variables, the Kaplan-Meier method was used for descriptive summaries.

refractory MM = conditions: expansion cohort (n=15) of the phase 1 monotherapy study; cited from earlier work
quad-refractory myeloma = conditions: pivotal phase 2 study; cited from earlier work
[4] = selinexor 80 mg + dexamethasone 20 mg twice weekly
[5] = selinexor 80 mg + dexamethasone 20 mg twice weekly, % of mITT patients
[6] = selinexor 80 mg + dexamethasone 20 mg twice weekly, % of patients

CC(C)C[C@H](NC(=O)[C@H](CCc1ccccc1)NC(=O)CN1CCOCC1)C(=O)N[C@@H](Cc1ccccc1)C(=O)N[C@@H](CC(C)C)C(=O)[C@@]1(C)CO1 [carfilzomib]
ORR [1]: 18.9%

O=C(/C=C\n1cnc(-c2cc(C(F)(F)F)cc(C(F)(F)F)c2)n1)NNc1cnccn1 [selinexor, Selinexor]
Overall response rate (ORR) [2]: 21% | discontinuation because of AEs (unrelated and related) ([3]; most common reasons for discontinuation): 32.5% | Overall response rate (ORR) ([3]; oral selinexor 80 mg + dexamethasone 20 mg, days 1 and 3 weekly, mITT population (122 patients), IRC adjudicated): 26.2% | CBR (≥minimal response), clinical benefit rate [3, 4]: 39.3% | OS (Overall Survival) [3, 4]: 8.6 months | PFS (progression-free survival) [3, 4]: 3.7 months | median DOR (duration of response) [3, 4]: 4.4 months | partial responses [3, 5]: 19.7% | stringent complete responses [3, 5]: 1.6% | very good partial responses [3, 5]: 4.9% | Minimal response [3, 6]: 13.1% | progressive disease or disease not evaluable [3, 6]: 21.3% | stable disease [3, 6]: 39.3% | response of patients with relapse after CAR-T ([3]; selinexor 80 mg + dexamethasone 20 mg twice weekly, both (2) patients with prior CAR-T therapy): partial response | Median time to partial response or better ([3]; selinexor 80 mg + dexamethasone 20 mg twice weekly, range 1-14 weeks): 4.1 weeks | median OS in patients who achieved a partial or minimal response or better ([3]; selinexor 80 mg + dexamethasone 20 mg twice weekly, responder subgroup): 15.6 months | efficacy across subgroups ([3]; subgroups including patients with high-risk cytogenetics (53% of the patients)): consistent across subgroups

daratumumab
ORR (refractory MM): 36% | ORR (quad-refractory myeloma): 21.2%
